From patent US20260191829A1, “Compositions and Methods of Treating Neurological Conditions” (DRI Biosciences Corporation, priority 2022, published 2026)
Entries after “also recorded” stand apart in the source; their conditions may differ.

How the values were obtained:
Fmr1 KO mice [1] = experiment: Metabolic activities (glucose and lipid) of Fmr1 KO mice; format: in vivo, mouse; details: Fmr1 KO mice vs FVB mice; FIG. 4C
From the text: The altered metabolic activities indicated sympathetic dysregulation (i.e., catecholaminergic disequilibrium). Dopaminergic activity modulates sympathetic activation.
(§1) The study compared learning and memory behaviors of the different drug treated and untreated (vehicle) Fmr1 KO mice with FVB mice (a background strain of the transgenic Fmr1 KO mice; “FVB” refers to the susceptibility of FVB mice to Friend leukemia virus B). Male mice (FVB.129P2-Pde6b<+> Tyr<c-ch>Fmr1<tm1Cgr>/J (Stock No: 004624 |FMR1 KO)) were used as the FXS/autism model and age-matched male mice (FVB.129P2-Pde6b<+> Tyr<c-ch>/AntJ) were used as the controls (Bernardet, M. and W. E. Crusio, Fmr1 KO mice as a possible model of autistic features. Scientific WorldJournal, 2006. 6: p. 1164-76. Hays, S. A., K. M. Huber, and J. R. Gibson, Altered neocortical rhythmic activity states in Fmr1 KO mice are due to enhanced mGluR5 signaling and involve changes in excitatory circuitry. J Neurosci, 2011. 31(40): p. 14223-34. Willemsen, R. and R. F. Kooy, Mouse models of fragile X-related disorders. Dis Model Mech, 2023. 16(2).).
Such alterations indicated an excessive sympathetic activation.

Fmr1 KO mice [2] = experiment: Novel object recognition test (learning and memory) in Fmr1 KO mice; format: in vivo, mouse; details: Fmr1 KO mice vs vehicle and FVB mice, daily oral treatment from P21, ACT01 25 mg/kg, FIG. 4D
From the text: as §1
Unexpected drug-combination effects on rodent learning and memory: Novel object recognition test was used to assess treatment effects of different catecholaminergic mediations (including drug combinations) on cognitive behavior, i.e., learning and memory. […]

## 3-(phenylpropyl)-sydnonimine-N-phenylcarbamoyl [ACT01]
Fmr1 KO mice [1]
  glucose and lipid metabolisms (metabolic activities): normalized the glucose and lipid metabolisms; also recorded: normalized the metabolic activities
Fmr1 KO mice [2]
  learning and memory ability (NOR index = novel object recognition index): significantly (p<0.05) improved; also recorded: positively enhance
